Key:
[1] = test system: CD8+ T-lymphocytes (PBMC); experiment: staining of PBMC with HLA-A*0201 tetramers, flow cytometry; type: cell-based, human
Description: Peripheral blood mononuclear cells (in the following PBMC) from two healthy donors (HDI and HD2), which were serologically typed as CMV-positive, were isolated by gradient centrifugation (FicoLite H) and frozen.
HLA-A *0201 tetrameric complexes were produced as described by Altman et al., 1996, Phenotypic analysis of antigen-specific T-lymphocytes, Science 274: 94-96, as follows: The HLA-A2-binding peptides used for the refolding were […] (SEQ ID NO: 1) from keratin 18 and […] (SEQ ID NO: 2) from pp65 HCMVA. Tetramers were assembled by mixing biotinylated monomers with streptavidin-PE or streptavidin-APC and 2-3×10^6 cells were incubated 30 min at 4° C. with both tetramers: 10 μg/ml for each monomer in PBS, 0.01% NaN3, 2 mM EDTA, 50% fetal calf serum). Then, monoclonal antibodies Anti-CD4-FITC (Coulter-Immunotech) and Anti-CD8-PerCP (Becton Dickinson) were added for 20 min. After three washes, samples were fixed in FACS buffer, 1% formaldehyde. Four-color analysis was performed on a FACScalibur cytometer (Becton Dickinson).
Staining of PBMC of tumor patients and healthy individuals with HLA-A*0201 tetramers was performed with tetramers reconstituted either with adipophilin, keratin 18 or met-proto-oncogene.
Dot plots show samples from one of three independent experiments for 1×10^6 PBMC. In the plots, percentage of tetramer^+-cells within the CD8^+ CD4^− population are indicated.

[2] = test system: CD8+ T-cells (PBMC from HLA-A2 positive renal cell carcinoma patients); experiment: quantitative PCR assay of γ-Interferon-mRNA production after 7 day in vitro sensitization with peptide; type: cell-based, human; settings: PBMC from 6 HLA-A2 positive renal cell carcinoma patients
Procedure: PBMC from 6 HLA-A2 positive renal cell carcinoma patients were tested for reaction against four of the relevant peptides: HLA-A*02-restricted ligands from adipophilin, keratin 18, K1AA0367 and met-proto-oncogene. In doing so, a very sensitive quantitative PCT assay was carried out to detect γ-Interferon-mRNA production by CD8^+ T-cells following a 7 day-in vitro-sensitization with peptide.

NLVPMVATV [CMV tetramer, reference compound]
staining of the keratin 18-specific CD8+ population with the tetramer ([1]; simultaneous staining with HLA-A2/keratin 18-PE and HLA-A2/CMV-APC tetramers, specificity control): did not stain

SVASTITGV (listed as Homo sapiens) [adipophilin, HLA-A*02-restricted ligand from adipophilin]
γ-Interferon-mRNA production by CD8+ T-cells (response to peptide) [2]: Sporadic responses

ALLNIKVKL (listed as Homo sapiens) [keratin 18]
γ-Interferon-mRNA production by CD8+ T-cells (response to peptide) [2]: Sporadic responses | healthy individuals in whom a significant specific CD8+ T-lymphocyte population was found ([1]; HLA-A*0201 tetramer staining of PBMC of healthy individuals): 4 out of 22

YVDPVITSI (listed as Homo sapiens) [met-proto-oncogene, HLA-A*02-restricted ligand derived from met proto-oncogene]
γ-Interferon-mRNA production by CD8+ T-cells (response to peptide) [2]: Sporadic responses

— US9783849B2, “Method for identifying immunoreactive peptides” (immatics biotechnologies GmbH, priority 2002, dated 2017)
